Like-named read-outs stand apart in the source and are kept apart here. Ends that are not written are not given here.
What was measured:
[1] = test system: P. aeruginosa ATCC 9027; experiment: Outer membrane permeabilization with N-phenyl-naphthylamine; assay type: cell-based, Pseudomonas aeruginosa; conditions: compared with 16 μM polymyxin B
Protocol: N-phenyl-naphthylamine (NPN; Tokyo chemical industry [TCI]) was used to study the permeabilization of the OM as described by […] et al. ([81]). Briefly, P. aeruginosa ATCC 9027 was grown until the mid-log phase in MHB. Afterwards, the cells were centrifuged (3,000 × g, 15 min) and resuspended in 5 mM HEPES buffer (pH 7.4) to an OD600 of 0.5. […] Fluorescence was measured every 5 min during 1 h using a microplate reader (Promega) with λexcitation = 350 nm and λemission = 420. Data were normalized based on the fluorescent signal in the presence of 50 μL HEPES buffer, 50 μL NPN, and 100 μL bacteria. Experiments were carried out in triplicate.

[2] = test system: S. aureus ATCC 6538; assay type: cell-based, Staphylococcus aureus; conditions: determined visually, 16 h
In short: (§1)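 Peptides were serially diluted (64–0.25 μM, repeat 32–0.016 μM) against 5 × 10^3 CFU/mL inocula in MHB (bacteria) or RPMI (fungi) at 37°C for 16 h (bacteria), 24 h (C. albicans) or 48 h (A. fumigatus). MIC was read visually with resazurin readout; MBC was defined as ≥3 log reduction on MHA.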

[3] = test system: P. aeruginosa ATCC 15442; conditions: ATCC 15442, 16 h
[4] = test system: P. aeruginosa ATCC 9027; assay type: cell-based, Pseudomonas aeruginosa; conditions: for MBC P. aeruginosa ATCC 9027: plated on MHA, ≥3 log reduction vs growth control
[5] = test system: P. aeruginosa ATCC 15692 (PAO1); conditions: ATCC 15692, 16 h
[6] = test system: E. coli ATCC 8739; assay type: cell-based, Escherichia coli; conditions: for MBC E. coli ATCC 8739: plated on MHA, ≥3 log reduction vs growth control
In short: as §1

[7] = test system: P. aeruginosa ATCC 9027; experiment: Inner membrane permeabilization, propidium iodide uptake assay; assay type: cell-based, Pseudomonas aeruginosa; conditions: 32 μM versus polymyxin B 16 μM
Protocol: To investigate the IM damage induced by the selected AMPs, a PI (Sigma-Aldrich) uptake assay was performed, adapted from […] et al. ([80]). P. aeruginosa ATCC 9027 was grown until the mid-log phase in MHB. The bacteria were centrifuged (3,000 × g, 15 min) and resuspended in 5 mM HEPES (Sigma-Aldrich) buffer (pH 7.4) to an OD600 of 0.5. […] Fluorescence was measured every 5 min during 1 h using a microplate reader (Promega) at λexcitation = 530 nm and λemission = 620. Data were normalized based on the fluorescent signal in the presence of 50 μL HEPES buffer and 150 μL PI bacterial suspension. The assay was carried out in triplicate.

[8] = test system: P. aeruginosa ATCC 9027; experiment: Cytoplasmic membrane depolarization assay, diSC3(5); assay type: cell-based, Pseudomonas aeruginosa; conditions: 32-0.25 μM
Protocol: To study the effects of the peptides on the membrane potential, 3,3′-dipropylthiadicarbocyanine iodide (diSC3(5); TCI) was used as described by Kwon et al. ([82]). P. aeruginosa ATCC 9027 was grown until the mid-log phase in MHB. Afterwards, the cells were centrifuged (3,000 × g, 15 min), washed and resuspended in 5 mM HEPES buffer (pH 7.4) supplemented with 20 mM glucose and 100 mM KCl to an OD600 of 0.2. […] The fluorescent signal was measured at λexcitation = 620 nm and λemission = 670 with a microplate reader (Promega) every 5 min during 1 h. Furthermore, 0.1% Triton-X was used as a positive control. Data were normalized based on the fluorescent signal in the presence of 50 μL supplemented HEPES buffer and 150 μL diSC3(5)-bacterial suspension. The assay was carried out in triplicate.

With “RWYKKIFKPVEKAVQRVRDGTLQALGVAQQAANVYATAQGAQQQRHA-NH2 [Hill-Cec10]” the “maximum NPN uptake” value ([1]; at 32 μM) was 75%, the “concentration to achieve at least 50% NPN uptake” value [1] was 4 µM and the “MIC S. aureus ATCC 6538” value ([2]; repeat 1, 64-0.25 μM) was over 64.00 µM. For the same substance, the “MIC S. aureus ATCC 6538” value ([2]; repeat 2, 32-0.016 μM) was over 32.00 µM, the “MIC P. aeruginosa ATCC 15442” value [3] was 4 µM and the “MBC P. aeruginosa ATCC 9027” value ([4]; repeat 1) was 16.00 µM. The “MIC P. aeruginosa ATCC 9027” value ([4]; repeat 2, 32-0.016 μM, determined visually, 16 h) was 2.00 µM, the “MBC P. aeruginosa ATCC 9027” value ([4]; repeat 2) was 2.00 µM and the “MBC P. aeruginosa ATCC 15692 (PAO1)” value [5] was 16 µM. For the same substance, the “MIC E. coli ATCC 8739” value ([6]; ATCC 8739, 16 h) was 0.50 µM, the “MIC E. coli ATCC 8739” value ([6]; repeat 1, 64-0.25 μM, determined visually, 16 h) was 0.25 µM and the “MBC E. coli ATCC 8739” value ([6]; repeat 1) was 0.25 µM. For the same substance, the “MBC E. coli ATCC 8739” value ([6]; repeat 2) was 32.00 µM, the “PI uptake (inner membrane permeabilization)” value [7] was “exceeds that of a high dose of polymyxin B” and the “cytoplasmic membrane depolarization (diSC3(5) fluorescence)” value [8] was “cause cytoplasmic membrane depolarization”.
